Data on 15 molecules can be found in patent publication US6994987B1, “Process for producing tripeptides” (Calpis Co., Ltd., priority 1999, dated 2006).

No end group written: not given here.

For test [1], the system named is fraction 4 (peptidase derived from Lactobacillus helveticus). Briefly: Reaction of fraction 4 with chemically synthesized intermediate peptides as substrates. The conditions noted are these: substrate peptide reacted with fraction 4, HPLC. The class given is biochemical. As to the method:
A milk medium containing 9 wt % skim milk was inoculated with lactic acid bacteria Lactobacillus helveticus CM4 strain (deposited at National Institute of Bioscience and Human-Technology (1-3, Higashi 1 chome Tsukuba-shi Ibaraki-ken 305, Japan) under deposition number FEFM BP-6060 on Aug. 15, 1997) (referred to hereinbelow as CM4 strain). The bacteria were cultured at 37° C. for 24 hours. The CM4 strain has been accorded the aforementioned accession number under the Budapest Treaty on the International Recognition of the Deposit of Microorganisms for the Purposes of Patent Procedure. All restrictions on the availability to the public of this strain will be irrevocably removed upon the granting of a patent. To 500 ml of a fresh 9 wt % milk medium, cultured mixture was added at 5 wt %. […] was performed at 37° C. and at the pH of 6.5. Five hours after the start of pH stat culturing, sodium citrate was added so that the final concentration thereof became 2 wt %. The mixture was stirred for 30 minutes at room temperature. After confirming that the cultured liquid became clear, cell bodies were collected by centrifugation at 5000 g for 10 minutes. The cell bodies were washed twice with 50 mM phosphate buffer containing 150 mM NaCl pH 6.8, and suspended in 20 ml of 50 mM tris-Cl pH 8.0, and then crushed with an ultrasonic crusher (model 5203, manufactured by Ohtake Works Co.). Centrifugation at 15000 g was performed for 10 minutes for removing the precipitant and collecting the supernatant as a crude extract. 5 ml of the crude extract was passed through 1 ml of DEAE-sepharose column (manufactured by Pharmacia Corporation) that has been pre-equilibrated with the tris buffer. The column was washed with 5 ml of the tris buffer and then sequentially washed with 3 ml of tris buffers containing 50 mM, 100 mM, 150 mM, 200 mM, 300 mM and 500 mM NaCl, for fractionation.
An intermediate peptide Val-Pro-Pro-Phe-Leu was chemically synthesized. The synthesized peptide was dissolved at 10 μg/ml in 100 mM phosphate buffer (pH 6.1). This solution and one of the fractions 1 to 6 were mixed at the volume ratio of 9:1, and reacted at 37° C. for 30 minutes.
Further, it was confirmed that the tripeptide Ile-Pro-Pro was produced from the peptides Ile-Pro-Pro-Leu-Thr-Gln-Thr and Ile-Pro-Pro-Leu-Thr.

Test [2] deals with T1, Carboxypeptidase Y (Saccharomyces cerevisiae, UniProt P00729).
T1 construct: purchased Sigma Chemical Co
T1 sequence (P00729 112-532): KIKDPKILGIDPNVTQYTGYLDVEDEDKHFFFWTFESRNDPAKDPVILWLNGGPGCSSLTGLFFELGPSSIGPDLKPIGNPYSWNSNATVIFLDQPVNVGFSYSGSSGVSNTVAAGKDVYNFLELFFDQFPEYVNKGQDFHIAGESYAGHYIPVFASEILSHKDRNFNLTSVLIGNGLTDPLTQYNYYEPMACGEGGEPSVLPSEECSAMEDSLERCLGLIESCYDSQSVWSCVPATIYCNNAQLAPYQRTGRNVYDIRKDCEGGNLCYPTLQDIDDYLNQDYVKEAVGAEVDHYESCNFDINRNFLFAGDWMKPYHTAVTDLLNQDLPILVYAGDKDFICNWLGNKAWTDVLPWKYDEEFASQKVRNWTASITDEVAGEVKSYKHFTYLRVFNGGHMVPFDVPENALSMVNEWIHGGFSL
Briefly: Reactivity of peptidase formulations against synthetic peptides: carboxypeptidase Y alone. The test is classed as biochemical. Particulars: for Existence of IPP or VPP peaks: no aminopeptidase, carboxypeptidase Y, phosphate buffer pH 5.3, 37° C. 3 hours, HPLC. How it is done:
(§1) Peptides shown in Table 1 were chemically synthesized. […] All of these synthetic peptides were synthesized with the automatic peptide synthesizing machine PPSM-8 (manufactured by Shimadzu Corporation).
(§2) Each synthetic peptide was dissolved at the concentration of 10 μg/ml in 100 mM phosphate buffer pH 5.3 as to Experiments 1-1 to 1-4, 1-10 to 1-12, 1-16 and 1-21, or in 50 mM Tris-HCl buffer pH 8.0 as to other Experiments. Each of various peptidase formulations shown in Table 1 was then added so that the concentration thereof became 0.01 μg/ml, and the reaction was performed at 37° C. for 3 hours. After the enzyme reaction, the mixture was analyzed by the reverse phase high performance liquid chromatography (HPLC). […] The fractions of the detected peak were collected and amino acid sequence analysis was performed by the automatic peptide analyzer model PPSQ-10 (manufactured by Shimadzu Corporation). […]

Test [3] addresses angiotensin converting enzyme (ACE) (Homo sapiens, UniProt P12821). The conditions noted are these: known in the prior art; cited from earlier work.
Test [4] has as its system hypertensive patients. The conditions noted are these: known in the prior art; cited from earlier work.
The conditions of test [5]: reported in JP-A-11-100328; cited from earlier work.
Test [6] relates to spontaneous hypertension rats (SHR). Particulars: known in the prior art; cited from earlier work.
The subject of test [7] is synthetic peptide consisting of the 28 amino acids (SEQ ID NO: 28). As to the kind of experiment: Two step reaction of proteinase and fraction 4 on the 28 amino acid synthetic peptide. The test is classed as biochemical. Particulars: proteinase 0.1 μg/ml on 28-mer 10 μg/ml, pH 6.1, 37° C. 5 hours, heat inactivation, then fraction 4; HPLC. How it is done: To 10 μg/ml of the synthetic peptide consisting of the 28 amino acids that is the same as the one used in Experiment 2 (in 100 mM phosphate buffer pH 6.1), each of the commercially available proteinase enzymes for food processing shown in Table 4 was added at 0.1 μg/ml. The mixture was reacted at 37° C. for 5 hours. After finishing the reaction, the reacted liquid was heated at 100° C. for 5 minutes for inactivating the proteinase, and then reacted with the fraction 4 obtained in Experiment 4.

Test [8] concerns Aminipeptidase I + Carboxypeptidase Y. Briefly: Reactivity of peptidase formulations against synthetic peptides: aminopeptidase I + carboxypeptidase Y. Particulars: phosphate buffer pH 5.3, 37° C. 3 hours, HPLC. The class given is biochemical. As to the method:
as §1, §2

Sequence of angiotensin converting enzyme (ACE) (P12821 30-1306, species assumed): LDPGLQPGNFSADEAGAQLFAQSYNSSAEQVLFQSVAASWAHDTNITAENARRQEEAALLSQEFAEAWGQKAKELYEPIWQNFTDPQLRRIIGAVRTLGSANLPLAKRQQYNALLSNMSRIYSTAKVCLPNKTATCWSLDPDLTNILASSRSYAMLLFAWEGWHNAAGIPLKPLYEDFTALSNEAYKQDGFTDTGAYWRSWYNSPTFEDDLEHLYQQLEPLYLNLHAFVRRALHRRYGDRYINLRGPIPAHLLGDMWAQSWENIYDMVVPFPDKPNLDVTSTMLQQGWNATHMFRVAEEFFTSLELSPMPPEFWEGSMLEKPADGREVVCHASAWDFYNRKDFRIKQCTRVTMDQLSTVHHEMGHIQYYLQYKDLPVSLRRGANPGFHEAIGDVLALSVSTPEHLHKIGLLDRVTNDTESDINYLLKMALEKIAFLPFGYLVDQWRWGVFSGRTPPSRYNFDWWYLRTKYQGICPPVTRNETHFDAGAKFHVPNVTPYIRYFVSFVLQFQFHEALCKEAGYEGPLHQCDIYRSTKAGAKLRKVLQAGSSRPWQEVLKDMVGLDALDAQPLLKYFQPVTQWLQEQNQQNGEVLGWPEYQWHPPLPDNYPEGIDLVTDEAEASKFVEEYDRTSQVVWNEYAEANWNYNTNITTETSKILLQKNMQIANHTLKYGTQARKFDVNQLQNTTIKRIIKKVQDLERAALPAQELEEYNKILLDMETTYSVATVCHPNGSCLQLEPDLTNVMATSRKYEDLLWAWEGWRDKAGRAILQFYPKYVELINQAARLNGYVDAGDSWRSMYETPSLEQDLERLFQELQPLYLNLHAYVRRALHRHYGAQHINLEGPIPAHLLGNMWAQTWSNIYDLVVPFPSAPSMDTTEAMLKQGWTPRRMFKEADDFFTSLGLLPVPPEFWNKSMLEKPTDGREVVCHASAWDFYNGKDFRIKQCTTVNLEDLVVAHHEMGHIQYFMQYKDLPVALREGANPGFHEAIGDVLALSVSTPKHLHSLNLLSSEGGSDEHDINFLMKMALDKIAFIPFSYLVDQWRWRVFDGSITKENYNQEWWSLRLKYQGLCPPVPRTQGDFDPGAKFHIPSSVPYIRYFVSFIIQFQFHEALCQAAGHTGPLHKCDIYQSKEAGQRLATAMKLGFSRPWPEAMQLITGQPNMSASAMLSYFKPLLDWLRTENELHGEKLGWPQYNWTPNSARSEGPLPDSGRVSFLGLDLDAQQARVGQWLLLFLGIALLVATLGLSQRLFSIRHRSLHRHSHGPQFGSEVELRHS

Regarding IPPLTQT, the Peptide produced entry in test [1] is recorded as “Ile Pro Pro”; in test [1] (listed as Ile-Pro-Pro-Leu-Thr-Gln-Thr), “Ile-Pro-Pro”. Besides, in test [2], the “Existence of IPP or VPP peaks” value is reported as “IPP”.
For the molecule “Ile Pro Pro (IPP) [Ile-Pro-Pro, tripeptide produced by the method]”, the ACE inhibitory activity result in test [3] is listed as “strong”. The “anti-hypertensive effect on hypertensive patients” value in test [4] is recorded as “anti-hypertensive effect”. The anti-stress activity result in test [5] is reported as “anti-stress activity”. Moreover, the “anti-hypertensive activity on spontaneous hypertension rats (SHR)” value in test [6] was “strong anti-hypertensive activity”.
Consider Ile Pro Pro Leu Thr (IPPLT), for which the Peptide produced entry in test [1] is on record as “Ile Pro Pro”; in test [1] (listed as Ile-Pro-Pro-Leu-Thr), “Ile-Pro-Pro”.
On to Leu-Pro-Pro [reference compound], for which, in test [3], the ACE inhibitory activity entry is recorded as “ACE inhibitory activity”.
Pepsin: in test [7], the “Production of the tripeptides Ile-Pro-Pro and Val-Pro-Pro” value (from here on “Production”) is “No”.
As for QNIPPLTQT, the figures for the “Existence of IPP or VPP peaks” value in test [8] and in test [8] (listed as Gln-Asn-Ile-Pro-Pro-Leu-Thr-Gln-Thr) were “IPP” and “production of the tripeptides Ile-Pro-Pro or Val-Pro-Pro was also recognized”, respectively.
As for VPPFLQ, the Peptide produced result is reported as “Val Pro Pro” in test [1] and “Val-Pro-pro” in test [1] (listed as Val-Pro-Pro-Phe-Leu-Gln). Besides, the “Existence of IPP or VPP peaks” value in test [2] was “VPP”.
Turning to VVVPPFLQ, the “Existence of IPP or VPP peaks” value was “VPP” in test [8] and “production of the tripeptides Ile-Pro-Pro or Val-Pro-Pro was also recognized” in test [8] (listed as Val-Val-Val-Pro-Pro-Phe-Leu-Gln).
For “Val Pro Pro (VPP) [Val-Pro-Pro, tripeptide produced by the method]”, the “anti-hypertensive effect on hypertensive patients” value in test [4] was “anti-hypertensive effect”. In addition, in test [5], the anti-stress activity entry was “anti-stress activity”. For the same molecule, the “anti-hypertensive activity on spontaneous hypertension rats (SHR)” value in test [6] is reported as “strong anti-hypertensive activity”.
For Val Pro Pro Phe (VPPF), the “Existence of IPP or VPP peaks” value in test [2] was “VPP”.
With Val Pro Pro Phe Leu (VPPFL), the Peptide produced entry was “Val Pro Pro” in test [1] and “Val-Pro-pro” in test [1] (listed as Val-Pro-Pro-Phe-Leu).

B1: Subtilisin BPN: proteinase, Bacillus amyloliquefaciens, Sigma Chemical Co. (protein, UniProt P00782 108-382, looked up)
Subtilisin BPN': AQSVPYGVSQIKAPALHSQGYTGSNVKVAVIDSGIDSSHPDLKVAGGASMVPSETNPFQDNNSHGTHVAGTVAALNNSIGVLGVAPSASLYAVKVLGADGSGQYSWIINGIEWAIANNMDVINMSLGGPSGSAALKAAVDKAVASGVVVVAAAGNEGTSGSSSTVGYPGKYPSVIAVGAVDSSNQRASFSSVGPELDVMAPGVSIQSTLPGNKYGAYNGTSMASPHVAGAAALILSKHPNWTNTQVRSSLENTTTKLGDSFYYGKGLINVQAAAQ
Regarding B1, in test [7], the “Production” value was “No”.

B2: carboxy peptidase Y: Carboxypeptidase Y (manufactured by Sigma Chemical Co.) (protein, UniProt P00729 112-532, looked up)
Carboxypeptidase Y: KIKDPKILGIDPNVTQYTGYLDVEDEDKHFFFWTFESRNDPAKDPVILWLNGGPGCSSLTGLFFELGPSSIGPDLKPIGNPYSWNSNATVIFLDQPVNVGFSYSGSSGVSNTVAAGKDVYNFLELFFDQFPEYVNKGQDFHIAGESYAGHYIPVFASEILSHKDRNFNLTSVLIGNGLTDPLTQYNYYEPMACGEGGEPSVLPSEECSAMEDSLERCLGLIESCYDSQSVWSCVPATIYCNNAQLAPYQRTGRNVYDIRKDCEGGNLCYPTLQDIDDYLNQDYVKEAVGAEVDHYESCNFDINRNFLFAGDWMKPYHTAVTDLLNQDLPILVYAGDKDFICNWLGNKAWTDVLPWKYDEEFASQKVRNWTASITDEVAGEVKSYKHFTYLRVFNGGHMVPFDVPENALSMVNEWIHGGFSL
Regarding B2, in test [2] (reaction at pH 5.3), the “Bond cleavage by the enzyme (in words)” value is “capable of effectively cleave the bond between Pro and Leu in Pro-Pro-Leu and the bond between Pro and Phe in Pro-Pro-Phe”.

B3: Subtilisin Carlsberg: proteinase, Bacillus licheniformis, Sigma Chemical Co. (protein, UniProt P00780 106-379, looked up)
Subtilisin Carlsberg: AQTVPYGIPLIKADKVQAQGFKGANVKVAVLDTGIQASHPDLNVVGGASFVAGEAYNTDGNGHGTHVAGTVAALDNTTGVLGVAPSVSLYAVKVLNSSGSGSYSGIVSGIEWATTNGMDVINMSLGGASGSTAMKQAVDNAYAKGVVVVAAAGNSGSSGNTNTIGYPAKYDSVIAVGAVDSNSNRASFSSVGAELEVMAPGAGVYSTYPTNTYATLNGTSMASPHVAGAAALILSKHPNLSASQVRNRLSSTATYLGSSFYYGKGLINVEAAAQ
With B3, the “Production” value in test [7] is “No”.

B4: Trypsin (Type I): proteinase, bovine pancreas, Sigma Chemical Co. (protein, UniProt P00760 24-246, looked up)
Serine protease 1: IVGGYTCGANTVPYQVSLNSGYHFCGGSLINSQWVVSAAHCYKSGIQVRLGEDNINVVEGNEQFISASKSIVHPSYNSNTLNNDIMLIKLKSAASLNSRVASISLPTSCASAGTQCLISGWGNTKSSGTSYPDVLKCLKAPILSDSSCKSAYPGQITSNMFCAGYLEGGKDSCQGDSGGPVVCSGKLQGIVSWGSGCAQKNKPGVYTKVCNYVSWIKQTIASN
For the molecule B4, the “Production” value in test [7] is “No”.
